Data: US10030020B2, “Spirocycle compounds and methods of making and using same” (Abide Therapeutics, Inc., priority 2016, dated 2018)

Tests used:
[1] = target: T1, MAGL (Mus musculus (Mouse), UniProt O35678); test: In vitro competitive activity-based protein profiling (mouse brain membrane fraction or cell lysates), MAGL band; type: biochemical; settings: mouse proteome; for inhibition at 1 µM: read-out: MAGL % Inh 1 μM (mouse); for IC50: competitive ABPP
Description: In Vitro Competitive Activity-Based Protein Profiling.
Proteomes (mouse brain membrane fraction or cell lysates) (50 μL, 1.0 mg/mL total protein concentration) were preincubated with varying concentrations of inhibitors at 37° C. After 30 min, FP—Rh (1.0 μL, 50 μM in DMSO) was added and the mixture was incubated for another 30 min at 37° C. Reactions were quenched with SDS loading buffer (50 μL-4×) and run on SDS-PAGE.

[2] = target: T2, ABHD6 (Mus musculus (Mouse), UniProt Q8R2Y0); test: In vitro competitive activity-based protein profiling (mouse brain membrane fraction or cell lysates), ABHD6 band; type: biochemical; settings: mouse proteome; for inhibition at 1 µM: read-out: ABHD6 % Inh 1 μM (mouse); for IC50: competitive ABPP
T2 sequence (Q8R2Y0 whole entry): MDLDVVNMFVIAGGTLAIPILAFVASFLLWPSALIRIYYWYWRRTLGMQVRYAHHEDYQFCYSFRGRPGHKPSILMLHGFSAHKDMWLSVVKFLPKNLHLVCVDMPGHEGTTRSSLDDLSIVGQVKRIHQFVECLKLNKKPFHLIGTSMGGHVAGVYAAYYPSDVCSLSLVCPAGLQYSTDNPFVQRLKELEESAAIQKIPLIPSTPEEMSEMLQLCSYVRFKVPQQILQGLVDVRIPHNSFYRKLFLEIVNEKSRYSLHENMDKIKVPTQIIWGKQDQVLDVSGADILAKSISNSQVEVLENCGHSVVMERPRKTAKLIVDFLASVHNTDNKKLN
Method in brief: (§1)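 Competitive ABPP: proteome 1.0 mg/mL protein + inhibitor, 30 min, 37° C; FP-Rh probe (stock 50 μM in DMSO) added, 30 min, 37° C; SDS quench, SDS-PAGE, fluorescent band intensity read.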

[3] = target: T3, FAAH (Mus musculus (Mouse), UniProt O08914); test: In vitro competitive activity-based protein profiling (mouse brain membrane fraction or cell lysates), FAAH band; type: biochemical; settings: mouse proteome; for inhibition at 1 µM: read-out: FAAH % Inh 1 μM (mouse); for IC50: competitive ABPP
T3 sequence (O08914 whole entry): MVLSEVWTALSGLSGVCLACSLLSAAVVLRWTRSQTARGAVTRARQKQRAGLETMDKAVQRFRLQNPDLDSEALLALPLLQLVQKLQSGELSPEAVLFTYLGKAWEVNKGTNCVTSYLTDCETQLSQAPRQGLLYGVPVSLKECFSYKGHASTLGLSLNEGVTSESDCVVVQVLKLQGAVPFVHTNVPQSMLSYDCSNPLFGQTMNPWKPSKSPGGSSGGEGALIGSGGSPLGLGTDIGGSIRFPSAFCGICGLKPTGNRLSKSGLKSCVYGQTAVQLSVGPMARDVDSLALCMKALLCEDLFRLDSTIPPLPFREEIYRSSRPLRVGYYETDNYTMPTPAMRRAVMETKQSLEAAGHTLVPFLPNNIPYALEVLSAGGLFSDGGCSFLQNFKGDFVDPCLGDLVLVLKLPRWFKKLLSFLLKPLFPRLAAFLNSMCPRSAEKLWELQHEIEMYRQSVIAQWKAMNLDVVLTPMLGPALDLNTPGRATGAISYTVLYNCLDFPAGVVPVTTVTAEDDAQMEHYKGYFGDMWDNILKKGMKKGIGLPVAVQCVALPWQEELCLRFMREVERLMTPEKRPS
Method in brief: as §1

[4] = target: MAGL (Homo sapiens (Human), UniProt Q99685); test: In vitro competitive activity-based protein profiling (human prefrontal cortex or cell membrane fractions; hMAGL expressed in HEK293T cells); type: biochemical; settings: human proteome, competitive ABPP
MAGL (Homo sapiens (Human), UniProt Q99685), sequence (Q99685 whole entry): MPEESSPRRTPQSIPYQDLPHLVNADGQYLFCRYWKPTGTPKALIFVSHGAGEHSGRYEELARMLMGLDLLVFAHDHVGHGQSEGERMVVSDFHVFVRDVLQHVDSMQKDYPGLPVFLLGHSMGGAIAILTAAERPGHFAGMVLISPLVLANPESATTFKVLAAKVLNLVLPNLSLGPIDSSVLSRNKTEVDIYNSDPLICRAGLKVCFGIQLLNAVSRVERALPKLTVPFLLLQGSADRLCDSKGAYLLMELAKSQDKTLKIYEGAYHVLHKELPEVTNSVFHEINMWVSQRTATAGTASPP
Description: In Vitro Competitive Activity-Based Protein Profiling (Human).
Proteomes (human prefrontal cortex or cell membrane fractions) (50 μL, 1.0-2.0 mg/mL total protein concentration) were preincubated with varying concentrations of inhibitors at 37° C. After 30 min, FP—Rh or JW912 (1.0 μL, 50 μM in DMSO) was added and the mixture was incubated for another 30 min at room temperature. Reactions were quenched with SDS loading buffer (15 μL-4×) and run on SDS-PAGE.
Recombinant Expression of Human MAGL in HEK293T Cells.
Cell lysates were diluted with mock proteomes for use in competitive ABPP experiments.

[5] = target: T1, MAGL; test: Mouse brain proteomes from inhibitor treated mice (oral gavage, sacrificed 4 h after administration, ABPP analysis); type: in vivo, mouse (C57Bl/6J); settings: 5 mg/kg oral gavage
Method in brief: (§2)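 Compounds were given by oral gavage to wild-type C57Bl/6J mice in a vehicle such as PEG400/Ethanol/PBS (7/2/1). Animals were sacrificed 4 h after dosing, and brain proteomes were prepared and analyzed by established ABPP methods. Values are % inhibition at 5 mg/kg.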

[6] = target: T3, FAAH; test: Mouse brain proteomes from inhibitor treated mice (oral gavage, sacrificed 4 h after administration, ABPP analysis), FAAH; type: in vivo, mouse (C57Bl/6J); settings: 5 mg/kg oral gavage
Method in brief: as §2

[7] = target: T2, ABHD6; test: Mouse brain proteomes from inhibitor treated mice (oral gavage, sacrificed 4 h after administration, ABPP analysis), ABHD6; type: in vivo, mouse (C57Bl/6J); settings: 5 mg/kg oral gavage
Method in brief: as §2

T1 sequence (O35678 whole entry): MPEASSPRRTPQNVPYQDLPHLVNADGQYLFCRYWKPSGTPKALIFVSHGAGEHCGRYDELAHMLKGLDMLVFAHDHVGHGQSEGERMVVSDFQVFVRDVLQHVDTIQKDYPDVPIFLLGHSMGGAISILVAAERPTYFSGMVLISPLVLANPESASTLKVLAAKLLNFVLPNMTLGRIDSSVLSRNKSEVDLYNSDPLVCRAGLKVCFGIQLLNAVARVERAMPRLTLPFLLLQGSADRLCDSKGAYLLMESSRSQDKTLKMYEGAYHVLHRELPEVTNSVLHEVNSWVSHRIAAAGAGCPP

| Structure (SMILES) | inhibition at 1 µM [1] | IC50 [1] | inhibition at 1 µM [2] | IC50 [2] | inhibition at 1 µM [3] | IC50 [3] | IC50 [4] | MAGL % Inh 5 mg/kg (mouse) [5] | FAAH % Inh 5 mg/kg (mouse) [6] | ABHD6 % Inh 5 mg/kg (mouse) [7] |
| --- | --- | --- | --- | --- | --- | --- | --- | --- | --- | --- |
| O=C(O)C1CCN(c2cc(C(F)(F)F)ccc2CN2CCC3(CCN(C(=O)OC(C(F)(F)F)C(F)(F)F)CC3)C2)CC1 [Example 119, 1-(2-((8-(((1,1,1,3,3,3-Hexafluoropropan-2-yl)oxy)carbonyl)-2,8-diazaspiro[4.5]decan-2-yl)methyl)-5-(trifluoromethyl)phenyl)piperidine-4-carboxylic acid] | > 75% | < 100 nM | ≥ 75% | 100 to 1000 nM | < 25% | > 1000 nM | < 100 nM | ### (### is ≥75%) | # (# is <25%) | ### (### is ≥75%) |
| O=C(O)C1CCN(c2cc(Cl)ccc2CN2CCCC23CCN(C(=O)OC(C(F)(F)F)C(F)(F)F)CC3)CC1 [Example 120, 1-(5-Chloro-2-((8-(((1,1,1,3,3,3-hexafluoropropan-2-yl)oxy)carbonyl)-1,8-diazaspiro[4.5]decan-1-yl)methyl)phenyl)piperidine-4-carboxylic acid] | > 75% | < 100 nM | < 25% | > 1000 nM | < 25% | > 1000 nM | < 100 nM | ### (### is ≥75%) | # (# is <25%) | # (# is <25%) |
| O=C(O)C1CCN(c2cc(C(F)(F)F)ccc2CN2CCCC23CCN(C(=O)OC(C(F)(F)F)C(F)(F)F)CC3)CC1 [Example 121, 1-(2-((8-(((1,1,1,3,3,3-Hexafluoropropan-2-yl)oxy)carbonyl)-1,8-diazaspiro[4.5]decan-1-yl)methyl)-5-(trifluoromethyl)phenyl)piperidine-4-carboxylic acid] | > 75% | < 100 nM | < 25% | > 1000 nM | < 25% | > 1000 nM | < 100 nM | ### (### is ≥75%) | # (# is <25%) | # (# is <25%) |
| O=C(O)C1CCN(c2cc(Cl)cc(CN3CCCC34CCN(C(=O)OC(C(F)(F)F)C(F)(F)F)CC4)c2)CC1 [Example 122, 1-(3-Chloro-5-((8-(((1,1,1,3,3,3-hexafluoropropan-2-yl)oxy)carbonyl)-1,8-diazaspiro[4.5]decan-1-yl)methyl)phenyl)piperidine-4-carboxylic acid] | > 75% | < 100 nM | < 25% | > 1000 nM | < 25% | > 1000 nM | < 100 nM | ### (### is ≥75%) | ## (## is equal to or greater than 25% but less than 75%) | ## (## is equal to or greater than 25% but less than 75%) |
| O=C(O)C1CCN(c2cc(CN3CCCC34CCN(C(=O)OC(C(F)(F)F)C(F)(F)F)CC4)cc(C(F)(F)F)c2)CC1 [Example 123, 1-(3-((8-(((1,1,1,3,3,3-Hexafluoropropan-2-yl)oxy)carbonyl)-1,8-diazaspiro[4.5]decan-1-yl)methyl)-5-(trifluoromethyl)phenyl)piperidine-4-carboxylic acid] | > 75% | < 100 nM | < 25% | > 1000 nM | < 25% | > 1000 nM | < 100 nM | ### (### is ≥75%) | # (# is <25%) | ## (## is equal to or greater than 25% but less than 75%) |
| O=C(OC(C(F)(F)F)C(F)(F)F)N1CCC2(CCCN2Cc2ccc(C(F)(F)F)c(N3CCOCC3)c2)CC1 [Example 133, 1,1,1,3,3,3-Hexafluoropropan-2-yl 1-(3-morpholino-4-(trifluoromethyl)benzyl)-1,8-diazaspiro[4.5]decane-8-carboxylate] | > 75% | < 100 nM | < 25% | > 1000 nM | < 25% | > 1000 nM | < 100 nM | ### (### is ≥75%) | # (# is <25%) | # (# is <25%) |
| O=C(OC(C(F)(F)F)C(F)(F)F)N1CCC2(CCCN2Cc2ccc(C(F)(F)F)c(N3CCCC3)c2)CC1 [Example 134, 1,1,1,3,3,3-Hexafluoropropan-2-yl 1-(3-(pyrrolidin-1-yl)-4-(trifluoromethyl)benzyl)-1,8-diazaspiro[4.5]decane-8-carboxylate] | > 75% | < 100 nM | < 25% | > 1000 nM | < 25% | > 1000 nM | < 100 nM | ### (### is ≥75%) | # (# is <25%) | # (# is <25%) |
| O=C(O)c1cc(CN2CCCC23CCN(C(=O)OC(C(F)(F)F)C(F)(F)F)CC3)ccc1C(F)(F)F [Example 179, 5-((8-((1,1,1,3,3,3-Hexafluoropropan-2-yloxy)carbonyl)-1,8-diazaspiro[4.5]decan-1-yl)methyl)-2-(trifluoromethyl)benzoic acid] | > 75% | 100 to 1000 nM | < 25% | > 1000 nM | < 25% | > 1000 nM | < 100 nM | ### (### is ≥75%) | ## (## is equal to or greater than 25% but less than 75%) | # (# is <25%) |
| CS(=O)(=O)C1CCN(c2cc(C(F)(F)F)ccc2CN2CCCC23CCN(C(=O)OC(C(F)(F)F)C(F)(F)F)CC3)C1 (stereo not drawn) [Example 193, 1,1,1,3,3,3-Hexafluoropropan-2-yl 1-(2-(3-(methylsulfonyl)pyrrolidin-1-yl)-4-(trifluoromethyl)benzyl)-1,8-diazaspiro[4.5]decane-8-carboxylate] | > 75% |  | < 25% |  | < 25% |  | < 100 nM | ## (## is equal to or greater than 25% but less than 75%) | # (# is <25%) | # (# is <25%) |
| O=C(O)C1CCN(Cc2cc(Cl)cc(CN3CCCC34CCN(C(=O)OC(C(F)(F)F)C(F)(F)F)CC4)c2)CC1 [Example 194, 1-(3-Chloro-5-((8-(((1,1,1,3,3,3-hexafluoropropan-2-yl)oxy)carbonyl)-1,8-diazaspiro[4.5]decan-1-yl)methyl)benzyl)piperidine-4-carboxylic acid] | > 75% |  | < 25% |  | < 25% |  | < 100 nM | ## (## is equal to or greater than 25% but less than 75%) | # (# is <25%) | # (# is <25%) |
| CC1(C(=O)O)CN(c2cc(CN3CCCC34CCN(C(=O)OC(C(F)(F)F)C(F)(F)F)CC4)cc(C(F)(F)F)c2)CCO1 (stereo not drawn) [Example 195, 4-(3-((8-(((1,1,1,3,3,3-hexafluoropropan-2-yl)oxy)carbonyl)-1,8-diazaspiro[4.5]decan-1-yl)methyl)-5-(trifluoromethyl)phenyl)-2-methylmorpholine-2-carboxylic acid] | > 75% | < 100 nM | < 25% | > 1000 nM | < 25% | > 1000 nM | < 100 nM | # (# is <25%) | # (# is <25%) | # (# is <25%) |
| O=C(O)[C@@H]1CCCCN1c1cc(CN2CCCC23CCN(C(=O)OC(C(F)(F)F)C(F)(F)F)CC3)cc(C(F)(F)F)c1 [Example 196, (S)-1-(3-((8-(((1,1,1,3,3,3-Hexafluoropropan-2-yl)oxy)carbonyl)-1,8-diazaspiro[4.5]decan-1-yl)methyl)-5-(trifluoromethyl)phenyl)piperidine-2-carboxylic acid] | > 75% |  | < 25% |  | < 25% |  | < 100 nM | ### (### is ≥75%) | # (# is <25%) | # (# is <25%) |
